Here are results for one molecule from BindingDB's records for doi:10.1016/j.chembiol.2011.01.012 (University of Luxembourg, 2011).

SMILES strings stand for the structures.

The term IC50 denotes the concentration that inhibits the measured activity by half.

Assay [1] concerns the target Non-receptor tyrosine-protein kinase TYK2 (Homo sapiens, UniProt P29597). As to the kind of experiment: Enzyme Assay. The conditions noted are these: pH 7.5; 30 °C.
For assay [2], the target named is Tyrosine-protein kinase JAK1 (Homo sapiens, UniProt P23458). As to the kind of experiment: Enzyme Assay. To be noted: pH 7.5; 30 °C.
Sequence of Tyrosine-protein kinase JAK1 (P23458 whole entry): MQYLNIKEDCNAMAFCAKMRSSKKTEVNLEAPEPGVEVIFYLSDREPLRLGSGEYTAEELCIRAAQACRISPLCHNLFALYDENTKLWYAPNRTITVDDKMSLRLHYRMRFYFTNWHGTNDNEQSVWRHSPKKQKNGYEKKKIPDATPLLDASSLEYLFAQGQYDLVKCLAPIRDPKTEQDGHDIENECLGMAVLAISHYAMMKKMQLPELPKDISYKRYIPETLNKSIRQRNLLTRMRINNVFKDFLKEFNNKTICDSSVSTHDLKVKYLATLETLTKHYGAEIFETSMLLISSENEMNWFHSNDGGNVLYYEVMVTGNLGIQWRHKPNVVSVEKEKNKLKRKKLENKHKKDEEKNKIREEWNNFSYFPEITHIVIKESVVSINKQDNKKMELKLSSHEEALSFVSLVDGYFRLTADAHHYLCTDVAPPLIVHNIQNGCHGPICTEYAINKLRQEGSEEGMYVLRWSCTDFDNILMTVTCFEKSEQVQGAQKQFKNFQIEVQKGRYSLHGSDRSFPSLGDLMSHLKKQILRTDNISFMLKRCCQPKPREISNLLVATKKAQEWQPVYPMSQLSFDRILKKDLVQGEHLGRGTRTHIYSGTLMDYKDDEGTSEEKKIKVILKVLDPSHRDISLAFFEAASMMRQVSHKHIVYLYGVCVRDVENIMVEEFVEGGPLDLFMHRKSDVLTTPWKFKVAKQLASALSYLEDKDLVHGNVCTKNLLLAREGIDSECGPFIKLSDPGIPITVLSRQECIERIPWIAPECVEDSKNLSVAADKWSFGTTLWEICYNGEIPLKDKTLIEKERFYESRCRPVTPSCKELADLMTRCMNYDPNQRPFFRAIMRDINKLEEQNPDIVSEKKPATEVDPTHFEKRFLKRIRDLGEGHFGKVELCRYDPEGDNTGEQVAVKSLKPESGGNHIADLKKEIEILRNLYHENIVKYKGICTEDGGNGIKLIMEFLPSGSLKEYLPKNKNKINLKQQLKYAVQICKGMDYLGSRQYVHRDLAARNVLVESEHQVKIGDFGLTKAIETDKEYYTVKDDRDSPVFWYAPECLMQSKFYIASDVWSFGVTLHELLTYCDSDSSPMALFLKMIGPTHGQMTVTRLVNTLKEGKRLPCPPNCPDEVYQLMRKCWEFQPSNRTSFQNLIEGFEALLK

Sequence of Non-receptor tyrosine-protein kinase TYK2 (P29597 whole entry): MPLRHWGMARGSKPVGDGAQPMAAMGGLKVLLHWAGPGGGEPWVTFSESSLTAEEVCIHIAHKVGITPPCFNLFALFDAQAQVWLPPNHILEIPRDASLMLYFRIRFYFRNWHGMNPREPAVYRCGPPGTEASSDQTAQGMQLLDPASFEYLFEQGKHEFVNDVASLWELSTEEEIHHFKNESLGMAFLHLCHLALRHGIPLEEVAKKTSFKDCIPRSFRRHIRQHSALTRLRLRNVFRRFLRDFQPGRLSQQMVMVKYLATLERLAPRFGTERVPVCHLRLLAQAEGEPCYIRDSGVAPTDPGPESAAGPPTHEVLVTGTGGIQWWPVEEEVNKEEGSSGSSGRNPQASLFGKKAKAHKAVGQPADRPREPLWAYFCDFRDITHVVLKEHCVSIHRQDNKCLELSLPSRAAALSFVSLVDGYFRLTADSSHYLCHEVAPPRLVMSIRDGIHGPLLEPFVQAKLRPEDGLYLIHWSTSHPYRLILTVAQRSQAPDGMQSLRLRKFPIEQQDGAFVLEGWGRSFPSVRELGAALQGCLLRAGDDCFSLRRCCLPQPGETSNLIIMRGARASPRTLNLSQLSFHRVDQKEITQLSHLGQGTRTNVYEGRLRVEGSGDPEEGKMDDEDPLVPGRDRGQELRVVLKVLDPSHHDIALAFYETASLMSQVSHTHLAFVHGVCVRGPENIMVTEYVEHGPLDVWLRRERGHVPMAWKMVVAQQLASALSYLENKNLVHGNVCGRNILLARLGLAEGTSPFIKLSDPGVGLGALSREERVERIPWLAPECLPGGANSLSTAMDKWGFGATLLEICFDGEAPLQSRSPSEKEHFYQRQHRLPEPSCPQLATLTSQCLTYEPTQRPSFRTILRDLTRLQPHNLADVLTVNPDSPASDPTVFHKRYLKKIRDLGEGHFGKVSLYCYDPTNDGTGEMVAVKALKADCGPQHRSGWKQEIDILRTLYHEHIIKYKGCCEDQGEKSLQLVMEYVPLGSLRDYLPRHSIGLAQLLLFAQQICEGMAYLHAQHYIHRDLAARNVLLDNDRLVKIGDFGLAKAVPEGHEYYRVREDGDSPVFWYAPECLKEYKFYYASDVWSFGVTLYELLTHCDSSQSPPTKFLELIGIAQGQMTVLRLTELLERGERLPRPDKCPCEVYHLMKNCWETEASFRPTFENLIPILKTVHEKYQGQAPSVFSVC

Regarding `CC(C)(O)C(=O)N1CCN(c2ccc(C(F)(F)F)c(C3=C(c4c[nH]c5ccccc45)C(=O)NC3=O)c2)CC1` [NIBR3049], the IC50 was 8.05 µM in assay [1] and 1.02 µM in assay [2].
